Laboratory results published in patent publication US20230416268A1, “PYRIMIDINONE-CONTAINING 17-BETA-HYDROXYSTEROID DEHYDROGENASE TYPE 13 INHIBITORS” (ENANTA PHARMACEUTICALS, INC., priority 2022, published 2023).

Molecular target: Recombinant human 17β-HSD13 (Homo sapiens (Human), UniProt Q7Z5P4)
Experiment: 17β-HSD13 rapid-fire mass spectrometry assay (RF/MS assay)
Format: biochemical
Details: HSD17B13 80 nM, LTB4 10 μM, NAD+ 0.5 mM, RT 3 h, RF/MS readout
Experimental: 17β-HSD13 rapid-fire mass spectrometry assay (RF/MS assay). Recombinant human 17β-HSD13 was expressed and purified from sf9 cells at Charles River Labs (Saffron Walden, UK). […] The assays were quenched by adding 20 μL of 0.15% aqueous formic acid and the plates were frozen at −80° C. RF/MS analysis was performed at PureHoney Technologies (Billerica, MA) on a RapidFire RF300 system (Agilent Technologies, Inc.) coupled to an API 4000 triple quadrupole mass spectrometer (Sciex) equipped with Agilent RapidFire cartridge type A (C4). The mobile phase was 0.09% formic acid and 0.01% trifluoracetic acid in water (Buffer A) and 0.09% formic acid and 0.01% trifluoracetic acid in 80% aqueous acetonitrile (Buffer B). The RapidFire method conditions were the following: 250 ms aspirate, 3000 ms load/desalt, 4000 ms elute, and 500 ms re-equilibrate. RF-MS/MS was performed in negative polarity (−4500 V), the source temperature was 650° C., and gas 1 and gas 2 settings for nitrogen were set to 50. The curtain gas and collision gas were also nitrogen and were set to 20 and 12, respectively.
Data Analysis. 17β-HSD13 enzyme activity was measured as percent conversion of extracted ion counts and normalized to high and low controls to determine percent residual activity at various concentrations of test compounds. Data were fitted to normalized activity (variable slope) versus concentration fit in GraphPad Prism 7 to determine IC50. All experiments were run in duplicates.

Recombinant human 17β-HSD13, sequence (Q7Z5P4 20-300): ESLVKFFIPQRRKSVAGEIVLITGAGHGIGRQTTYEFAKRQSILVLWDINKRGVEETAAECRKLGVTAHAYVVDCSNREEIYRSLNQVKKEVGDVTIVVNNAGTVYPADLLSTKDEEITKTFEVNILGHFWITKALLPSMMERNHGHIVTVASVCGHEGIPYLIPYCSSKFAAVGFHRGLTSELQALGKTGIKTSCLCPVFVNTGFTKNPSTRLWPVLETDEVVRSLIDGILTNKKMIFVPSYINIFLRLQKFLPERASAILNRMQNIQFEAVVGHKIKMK

Row | Structure (SMILES) | IC50
1 | O=c1c2c(nc(-c3ccc(F)cc3C3CC3)n1Cc1cc(C(F)(F)F)no1)sc1c(O)cccc12 [Example 77] | < 100 nM
2 | O=c1c2c(nc(-c3ccccc3C3CC3)n1Cc1cncs1)sc1c(O)cccc12 [Example 47] | < 100 nM
3 | COc1ccc(-c2nc3sc4c(O)cccc4c3c(=O)n2Cc2nnn(C)n2)c(C2CC2)c1 [Example 16] | < 100 nM
4 | O=c1c2c(nc(-c3ccc(F)cc3C3CC3)n1CCCc1nccs1)sc1c(O)cccc12 [Example 84] | < 100 nM
5 | COc1ccc(-c2nc3sc4c(O)cccc4c3c(=O)n2C/C=C/CO)c(C2CC2)c1 [Example 43] | < 100 nM
6 | COc1ccc(-c2nc3sc4c(O)cccc4c3c(=O)n2CCN(C)Cc2cccnc2)c(C2CC2)c1 [Example 27] | < 100 nM
7 | Cc1cc(Cn2c(-c3ccc(F)cc3C3CC3)nc3sc4c(O)cccc4c3c2=O)on1 [Example 73] | 1000 to 10000 nM
8 | COc1ccc(-c2nc3sc4c(O)cccc4c3c(=O)n2CCNCc2ccncc2)c(C2CC2)c1 [Example 21] | < 100 nM
9 | COc1ccc(-c2nc3sc4c(O)cccc4c3c(=O)n2CCNCc2nnn[nH]2)c(C2CC2)c1 [Example 34] | < 100 nM
10 | COc1ccc(-c2nc3sc4c(O)cccc4c3c(=O)n2CCN)c(C2CC2)c1 [Example 44] | 100 to 1000 nM
11 | COc1ccc(-c2nc3sc4c(OP(=O)(O)O)cccc4c3c(=O)n2Cc2nnn(C)n2)c(C2CC2)c1 [Example 71] | 1000 to 10000 nM
12 | O=c1c2c(nc(-c3ccc4c(c3)OCCO4)n1Cc1ccccc1)sc1c(O)cccc12 [Example 4] | 100 to 1000 nM
13 | CC(C)Oc1ccc(-c2nc3sc4c(O)cccc4c3c(=O)n2Cc2ccccc2)cc1 [Example 7] | > 10000 nM
14 | COc1ccc(-c2nc3sc4c(O)cccc4c3c(=O)n2CCNCc2ccccn2)c(C2CC2)c1 [Example 22] | < 100 nM
15 | COc1ccc(-c2nc3sc4c(O)cccc4c3c(=O)n2C/C=C/COc2ccncc2)c(C2CC2)c1 [Example 37] | < 100 nM
16 | CCCn1c(-c2ccc(OC)cc2C2CC2)nc2sc3c(O)cccc3c2c1=O [Example 57] | 100 to 1000 nM
17 | COc1ccc(-c2nc3sc4c(O)cccc4c3c(=O)n2Cc2cnco2)c(C2CC2)c1 [Example 64] | < 100 nM
18 | COc1ccc(-c2nc3sc4c(O)cccc4c3c(=O)n2Cc2ccccc2)c(C2CC2)c1 [Example 9] | < 100 nM
19 | COc1ccc(-c2nc3sc4c(OC(C)=O)cccc4c3c(=O)n2Cc2cnco2)c(C2CC2)c1 [Example 1, 2-(2-cyclopropyl-4-methoxyphenyl)-3-(oxazol-5-ylmethyl)-4-oxo-3,4-dihydrobenzo[4,5]thieno[2,3-d]pyrimidin-8-yl acetate] | 100 to 1000 nM
20 | COc1ccc(-c2nc3sc4c(OC(=O)C(C)C)cccc4c3c(=O)n2Cc2cnco2)c(C2CC2)c1 [Example 88] | 1000 to 10000 nM
21 | COc1ccc(-c2nc3sc4c(O)cccc4c3c(=O)n2CCNC(=O)c2ccncc2)c(C2CC2)c1 [Example 38] | 100 to 1000 nM
22 | CCn1c(-c2ccc(OC)cc2C2CC2)nc2sc3c(O)cccc3c2c1=O [Example 56] | < 100 nM
23 | COc1ccc(-c2nc3sc4c(O)cccc4c3c(=O)n2Cc2ccno2)c(C2CC2)c1 [Example 63] | < 100 nM
24 | COc1ccc(-c2nc3sc4c(O)cccc4c3c(=O)n2Cc2cnc(C)s2)c(C2CC2)c1 [Example 60] | < 100 nM
25 | COc1ccc(-c2nc3sc4c(O)cccc4c3c(=O)n2Cc2csc(C)n2)c(C2CC2)c1 [Example 62] | < 100 nM
26 | COc1ccc(-c2nc3sc4c(O)cccc4c3c(=O)n2Cc2ccnc(Cl)c2)c(C2CC2)c1 [Example 13] | < 100 nM
27 | COc1ccc(-c2nc3sc4c(O)cccc4c3c(=O)n2Cc2ccncc2)c(C2CC2)c1 [Example 10] | < 100 nM
28 | O=c1c2c(nc(-c3ccc(F)cc3C3CC3)n1CCCc1nc3ccccc3s1)sc1c(O)cccc12 [Example 85] | < 100 nM
29 | COc1ccc(-c2nc3sc4c(O)cccc4c3c(=O)n2Cc2ccnc(C)c2)c(C2CC2)c1 [Example 12] | < 100 nM
30 | COc1ccc(-c2nc3sc4c(O)cccc4c3c(=O)n2C/C=C/COC(=O)N(C)C)c(C2CC2)c1 [Example 36] | < 100 nM
